Experiments:
Conditions in all cases: 72 h
[1] = system: KG-1; assay: cell viability (% survival relative to DMSO control, bortezomib = 0%); higher = less cytotoxic
In short: (§1)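 In 384-well plates pre-printed with compounds at 1, 10, 100, 1000 or 10000 nM, duplicate wells received cells from 10 AML and 5 CML lines at densities within the linear growth range. The plates stayed at 37 °C with 5% CO2 for 72 h before CellTiter-Glo luminescence was recorded. Each entry is averaged percent survival. Scaling placed vehicle at 100% and a 10 µM positive control at 0%.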

[2] = system: THP-1; assay: as above
In short: as §1

[3] = system: BV-173; assay: as above
In short: as §1

[4] = system: LAMA-84; assay: as above
In short: as §1

[5] = system: Mono-Mac-6; assay: as above
In short: as §1

[6] = system: NOMO-1; assay: as above
In short: as §1

[7] = system: K-562; assay: as above
In short: as §1

[8] = system: SHI-1; assay: as above
In short: as §1

[9] = system: ML-2; assay: as above
In short: as §1

[10] = system: MV4-11; assay: as above
In short: as §1

[11] = system: HL-60; assay: as above
In short: as §1

[12] = system: HEL; assay: as above
In short: as §1

[13] = system: KU-812; assay: as above
In short: as §1

[14] = system: KCL-22; assay: as above
In short: as §1

[15] = system: MOLM-13; assay: as above
In short: as §1

[16] = system: HL-60; assay: cell viability (% survival relative to DMSO control); higher = less cytotoxic
In short: (§2)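 In 384-well plates, the full library was rescreened in duplicate on HL-60 cells in RPMI 1640 with 10% FBS, at 1–10,000 nM in five tenfold concentrations, for 72 h at 37 °C, 5% CO2. Each run also held DMSO or 100 nM of one of three metabolic inhibitors. Viability was measured by CellTiter-Glo and normalised to DMSO wells and to wells with proteasome inhibitor, present at 10 μM. Any area under the curve comes from four-parameter log-logistic fitting with drc and PharmacoGx.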

[17] = system: MV4-11
In short: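 Dose–response data were fitted with a four-parameter log-logistic model. They came from fifteen myeloid leukaemia lines treated in duplicate with five tenfold doses from 1 to 10,000 nM for 72 h at 37 °C with 5% CO2, with ATP viability normalised to vehicle and to a positive control at 10 µM. The IC50 was derived from these fits.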

[18] = system: HL-60; assay: area under dose-response curve (viability, 1 nM-10 uM) (fraction (0-1)); higher = more sensitive
In short: as §2

O=C(O)C[C@@]1(O)C[C@@H](CCCCCCc2ccc(Cl)cc2Cl)OC1=O
Conditions | area under dose-response curve, co-treatment: AZD3965 100 nM | area under dose-response curve, co-treatment: DMSO vehicle | area under dose-response curve, co-treatment: GSK2194069 100 nM | area under dose-response curve, co-treatment: pictilisib 100 nM | cell viability, 1 nM [%] | cell viability, 10 nM [%] | cell viability, 100 nM [%] | cell viability, 1000 nM [%] | cell viability, 10000 nM [%]
[1] | – | – | – | – | 100 | 110 | 99.4 | 112 | 97.9
[2] | – | – | – | – | 103 | 97 | 103 | 99.7 | 90.3
[3] | – | – | – | – | 102 | 101 | 97.8 | 96.3 | 96.4
[4] | – | – | – | – | 99.6 | 99.8 | 92.7 | 97.3 | 96.7
[5] | – | – | – | – | 96.3 | 111 | 102 | 92.8 | 96.3
[6] | – | – | – | – | 101 | 103 | 97.4 | 98.8 | 99.5
[7] | – | – | – | – | 103 | 93.6 | 105 | 102 | 96.8
[8] | – | – | – | – | 99.7 | 124 | 98.4 | 102 | 96.4
[9] | – | – | – | – | 103 | 116 | 106 | 105 | 106
[10] | – | – | – | – | 95.3 | 86.1 | 90.5 | 102 | 98.4
[11] | – | – | – | – | 97.1 | 123 | 100 | 89.3 | 99.8
[12] | – | – | – | – | 110 | 118 | 99.2 | 89.2 | 95.6
[13] | – | – | – | – | 92.2 | 99.9 | 96 | 98.7 | 92.4
[14] | – | – | – | – | 97.1 | 107 | 88.4 | 97.5 | 112
[15] | – | – | – | – | 102 | 103 | 110 | 103 | 110
[18] | < 0.0301 | < 0.0301 | < 0.0301 | < 0.0301 | – | – | – | – | –

cell viability [%], [16]
Conditions | 0.001 µM | 0.01 µM | 0.1 µM | 1 µM | 10 µM
co-treatment: AZD3965 100 nM | 104 | 104 | 100 | 98.7 | 95.4
co-treatment: DMSO vehicle | 102 | 105 | 97.05 | 103 | 99.13
co-treatment: GSK2194069 100 nM | 108 | 108 | 95.77 | 99.5 | 93.44
co-treatment: pictilisib 100 nM | 107 | 109.5 | 92.03 | 103 | 99.5

Conditions | IC50 (cell viability) [µM]
[17] | > 10
